Assay results reported in patent US10987349B2, “Antitumor agent and bromodomain inhibitor” (FUJIFILM Corporation, priority 2016, dated 2021).

Assays:
[1] = test system: human undifferentiated thymoma cell line Ty-82; assay: Cell growth test (Cell Titer Glo) Ty-82; format: cell-based; details: TY82, 3 to 5 days
Source text: (§1) The human undifferentiated thymoma cell line Ty-82 (JCRB), the human acute myeloid leukemia cell lines MV4-11 (ATCC), MOLM-13 (ATCC) and RS4-11 (ATCC), the human lymphoma cell line Raji (JCRB), the human cervical epidermoid carcinoma cell line Hela (JCRB), the human lung adenocarcinoma cell line A549 (ATCC), the human colon cancer cell lines DLD1 (DS Pharma) and HCT116 (DS Pharma), and the human pancreatic cancer cell line MIAPACA-2 (ATCC) were used to carry out a cell growth test.
(§2) Ty-82, MV4-11, MOLM-13, RS4-11, Raji and DLD1 were each seeded in a well plate, in which Roswell Park Memorial Institute (RPMI)-1640 medium supplemented with penicillin/streptomycin and fetal bovine serum (FBS) with a final concentration of 10% was placed. Hela was seeded in Dulbecco's Modified Eagle's medium (DMEM) supplemented with penicillin/streptomycin and FBS with a final concentration of 10%. A549 and MIAPACA-2 were each seeded in a well plate, in which Minimum Essential Medium (MEM) supplemented with penicillin/streptomycin and FBS with a final concentration of 10% was placed. HCT116 was seeded in a well plate, in which McCoy's 5A medium supplemented with penicillin/streptomycin and FBS with a final concentration of 10% was placed.
(§3) Thereafter, a medium containing a test compound serially diluted with DMSO, or DMSO, was added to each well of the plate, in which the cells had been seeded, and the obtained mixture was then cultured under conditions of 37° C. and 5% CO2 for 3 to 5 days. Cell Titer Glo reaction solution (Promega) was added to the culture, and the amount of luminescence was then measured using Envision plate reader (PerkinElmer). Since the amount of luminescence is in proportion to the concentration of adenosine triphosphate (ATP) in cells, the amount of luminescence was used as an indicator of the number of living cells. The growth inhibition percentage of the test compound in each concentration was calculated according to the following equation. Growth inhibition percentage (%)=(amount of luminescence in test compound−added well)/(amount of luminescence in DMSO−added well)×100
(§4) The growth inhibition percentage of the test compound in each concentration was plotted by performing a non-linear regression analysis [(log (inhibitor) vs. response—Variable slope (four parameters)], using Graphpad prism 5, and a 50% growth inhibitory concentration [GI50 (nmol/L)] was then calculated.

[2] = test system: human acute myeloid leukemia cell line MV4-11; assay: Cell growth test (Cell Titer Glo) MV4-11; format: cell-based; details: 3 to 5 days
Source text: as §1, §2, §3, §4

BRD4 BD1 = molecular target: T1, BRD4 BD1 (Homo sapiens, UniProt O60885); assay: Binding assay, BRD4 BD1 to acetylated histone H4 Peptide-Biotin (EPIgeneous Binding Domain Kit A); details: for inhibition at 0.3 µM: test compound at 300 nmol/L, read-out: Binding inhibition percentage BRD4 BD1
T1 construct: BRD2 BD1, BRD3 BD1 and BRD4 BD1 (Cisbio); purchased Cisbio
Procedure: (§5) BRD2 BD1, BRD3 BD1 and BRD4 BD1 (Cisbio), [Lys(Ac)5/8/12/16]-Histone H4(1-25)-GSGSK (Biotin) (hereinafter referred to as “Peptide-Biotin,” AnaSpec), and EPIgeneous (registered trademark) Binding Domain Kit A (Cisbio) were used to carry out an assay. That is to say, per well, 4 μL of BRD2 BD1, BRD3 BD1 or BRD4 BD1, which was adjusted to 20 nmol/L with Diluent buffer; 4 μL of 25 nmol/L Peptide-Biotin; 2 μL of Dilution buffer (Cisbio) containing dimethyl sulfoxide (DMSO) or a test compound that was serially diluted with DMSO; 5 μL of 2.5 nmol/L Streptavidin-d2; and 5 μL of Anti-Gst-Eu+^3+ Cryptate Conjugate 50-fold diluted with Detection Buffer were added to a 384-well plate (Corning).
(§6) The obtained mixture was left at rest at room temperature for 20 hours, and thereafter, the fluoresence intensity at 665 nm and 620 nm was measured using Envision plate reader (Perkin Elmer), so that the inhibition percentage (%) of the test compound against the binding of a bromodomain in a bromodomain-containing protein to Peptide-Biotin was calculated. Binding inhibition percentage (%)=[1−{(fluorescence intensity at 665 nm of test compound−added well)/(fluorescence intensity at 620 nm of test compound−added well)}/{(fluorescence intensity at 665 nm of DMSO−added well)/(fluorescence intensity at 665 nm of DMSO−added well)}]×100
(§7) Moreover, using Graphpad prism 5 (GraphPad software), 50% inhibitory concentration [IC50 (nmol/L)] was calculated according to a non-linear regression analysis (log (inhibitor) vs. response—Variable slope (four parameters)).
(§8) Regarding other test compounds, each compound was diluted with DMSO to a final concentration of 300 nmol/L by the same method as that described above, and the binding inhibition percentage (%) of each test compound at 300 nmol/L against the binding of bromodomain in a bromodomain-containing protein to acetylated histone was calculated.

BRD2 BD2 = molecular target: T2, BRD2 BD2 (Homo sapiens, UniProt P25440); assay: Binding assay, BRD2 BD2 to acetylated histone H4 Peptide-Biotin (EPIgeneous Binding Domain Kit B); details: for inhibition at 0.3 µM: test compound at 300 nmol/L, read-out: Binding inhibition percentage BRD2 BD2
T2 construct: BRD2 BD2, BRD3 BD2 and BRD4 BD2 (Cisbio); purchased Cisbio
T2 sequence (P25440 344-453 limits assumed): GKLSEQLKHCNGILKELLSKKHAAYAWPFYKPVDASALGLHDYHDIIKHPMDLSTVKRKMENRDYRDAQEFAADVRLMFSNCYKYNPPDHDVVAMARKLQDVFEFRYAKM
Procedure: (§9) Moreover, BRD2 BD2, BRD3 BD2 and BRD4 BD2 (Cisbio), Peptide-Biotin (AnaSpec), and EPIgeneous (registered trademark) Binding Domain Kit B (Cisbio) were used to carry out an assay. That is, per well, 4 μL of BRD2 BD2, BRD3 BD2 or BRD4 BD2, which was adjusted to 20 nmol/L with Diluent buffer; 4 μL of 250 nmol/L Peptide-Biotin; 2 μL of Dilution buffer (Cisbio) containing DMSO or a test compound that was serially diluted with DMSO; 5 μL of 25 nmol/L Streptavidin-XL665; 5 μL of Anti-Gst-Eu+^3+ Cryptate Conjugate 50-fold diluted with Detection Buffer were added to a 384-well plate (Corning).
as §6, §7, §8

[3] = test system: human acute myeloid leukemia cell line MOLM-13; assay: Cell growth test (Cell Titer Glo) MOLM-13; format: cell-based; details: 3 to 5 days
Source text: as §1, §2, §3, §4

BRD4 BD2 = molecular target: T3, BRD4 BD2 (Homo sapiens, UniProt O60885); assay: Binding assay, BRD4 BD2 to acetylated histone H4 Peptide-Biotin (EPIgeneous Binding Domain Kit B); details: for inhibition at 0.3 µM: test compound at 300 nmol/L, read-out: Binding inhibition percentage BRD4 BD2
T3 construct: BRD2 BD2, BRD3 BD2 and BRD4 BD2 (Cisbio); purchased Cisbio
Procedure: as §9, §6, §7, §8

BRD3 BD2 = molecular target: T4, BRD3 BD2 (Homo sapiens, UniProt Q15059); assay: Binding assay, BRD3 BD2 to acetylated histone H4 Peptide-Biotin (EPIgeneous Binding Domain Kit B); details: for inhibition at 0.3 µM: test compound at 300 nmol/L, read-out: Binding inhibition percentage BRD3 BD2
T4 construct: BRD2 BD2, BRD3 BD2 and BRD4 BD2 (Cisbio); purchased Cisbio
T4 sequence (Q15059 306-415 limits assumed): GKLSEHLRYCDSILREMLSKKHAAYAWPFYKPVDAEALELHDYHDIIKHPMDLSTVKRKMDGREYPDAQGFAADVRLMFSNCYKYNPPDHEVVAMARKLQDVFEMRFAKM
Procedure: as §9, §6, §7, §8

BRD2 BD1 = molecular target: T5, BRD2 BD1 (Homo sapiens, UniProt P25440); assay: Binding assay, BRD2 BD1 to acetylated histone H4 Peptide-Biotin (EPIgeneous Binding Domain Kit A); details: for inhibition at 0.3 µM: test compound at 300 nmol/L, read-out: Binding inhibition percentage BRD2 BD1
T5 construct: BRD2 BD1, BRD3 BD1 and BRD4 BD1 (Cisbio); purchased Cisbio
T5 sequence (P25440 74-180 limits assumed): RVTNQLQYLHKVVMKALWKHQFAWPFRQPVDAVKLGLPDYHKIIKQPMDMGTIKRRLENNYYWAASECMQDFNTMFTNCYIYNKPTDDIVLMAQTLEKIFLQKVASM
Procedure: as §5, §6, §7, §8

BRD3 BD1 = molecular target: T6, BRD3 BD1 (Homo sapiens, UniProt Q15059); assay: Binding assay, BRD3 BD1 to acetylated histone H4 Peptide-Biotin (EPIgeneous Binding Domain Kit A); details: for inhibition at 0.3 µM: test compound at 300 nmol/L, read-out: Binding inhibition percentage BRD3 BD1
T6 construct: BRD2 BD1, BRD3 BD1 and BRD4 BD1 (Cisbio); purchased Cisbio
T6 sequence (Q15059 34-140 limits assumed): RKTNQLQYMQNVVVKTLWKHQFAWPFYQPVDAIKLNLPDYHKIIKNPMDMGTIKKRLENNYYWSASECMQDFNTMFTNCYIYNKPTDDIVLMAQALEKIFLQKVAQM
Procedure: as §5, §6, §7, §8

GI50 [1] | GI50 [2] | inhibition at 0.3 µM (BRD4 BD1) | inhibition at 0.3 µM (BRD2 BD2) | GI50 [3] | inhibition at 0.3 µM (BRD4 BD2) | inhibition at 0.3 µM (BRD3 BD2) | inhibition at 0.3 µM (BRD2 BD1) | inhibition at 0.3 µM (BRD3 BD1) | IC50 (BRD4 BD1) | IC50 (BRD2 BD2) | IC50 (BRD4 BD2) | IC50 (BRD3 BD2) | IC50 (BRD2 BD1) | IC50 (BRD3 BD1) | SMILES
23 nM | 22 nM | 94% | 79% | 44 nM | 83% | 83% | 94% | 94% | – | – | – | – | – | – | CCn1c(=O)cc(C2CCN(C)CC2)c2cc(C(=O)N3CCCc4ccccc43)ccc21 [Example 11, 6-(3,4-dihydroquinolin-1 (2H)-ylcarbonyl)-1-ethyl-4-(1-methylpiperidin-4-yl)quinolin-2(1H)-one]
– | – | 91% | 88% | – | 87% | 92% | 71% | 89% | – | – | – | – | – | – | CCn1c(=O)cc(C2CC2)c2cc(-n3c(C)cc(=O)n3-c3ccccc3)ccc21 [Example 282b, 4-Cyclopropyl-1-ethyl-6-(5-methyl-3-oxo-2-phenyl-2,3-dihydro-1H-pyrazol-1-yl)quinolin-2(1H)-one]
– | – | 90% | 86% | – | 87% | 92% | 68% | 87% | – | – | – | – | – | – | CCn1c(=O)cc(C2CC2)c2cc(-c3nc(C)[nH]c3-c3ccccc3)ccc21 [Example 283, 4-cyclopropyl-1-ethyl-6-(2-methyl-5-phenyl-1H-imidazol-4-yl)quinolin-2(1H)-one]
– | – | 95% | 89% | – | 89% | 93% | 91% | 94% | – | – | – | – | – | – | CCn1c(=O)cc(C2CCC(O)CC2)c2cc(C(=O)N(C)c3ccc(Cl)cc3)ccc21 (stereo not drawn) [Example 286, N-(4-chlorophenyl)-1-ethyl-4-(4-hydroxycyclohexyl)-N-methyl-2-oxo-1,2-dihydroquinoline-6-carboxamide]
– | – | 85% | 83% | – | 84% | 91% | 64% | 88% | – | – | – | – | – | – | CCn1c(=O)cc(C)c2cc(-c3cccnc3-c3ccccc3)ccc21 [Example 291, 1-ethyl-4-methyl-6-(2-phenylpyridin-3-yl)quinolin-2(1H)-one]

The next lines start with the compound.

SMILES | GI50 [1] | GI50 [2] | inhibition at 0.3 µM (BRD4 BD1) | inhibition at 0.3 µM (BRD2 BD2) | GI50 [3] | inhibition at 0.3 µM (BRD4 BD2) | inhibition at 0.3 µM (BRD3 BD2) | inhibition at 0.3 µM (BRD2 BD1) | inhibition at 0.3 µM (BRD3 BD1) | IC50 (BRD4 BD1) | IC50 (BRD2 BD2) | IC50 (BRD4 BD2) | IC50 (BRD3 BD2) | IC50 (BRD2 BD1) | IC50 (BRD3 BD1)
CCn1c(=O)cc(C2CC2)c2cc(-c3nccnc3-c3ccccc3)ccc21 [Example 284, 4-cyclopropyl-1-ethyl-6-(3-phenylpyrazin-2-yl)quinolin-2(1H)-one] | – | – | 93% | 88% | – | 89% | 92% | 83% | 93% | – | – | – | – | – | –
CCn1c(=O)cc(C2CCN(C(C)=O)CC2)c2cc(C(=O)N(C)c3ccc(C)cc3)ccc21 [Example 290, 4-(1-acetylpiperidin-4-yl)-1-ethyl-N-methyl-N-(4-methylphenyl)-2-oxo-1,2-dihydroquinoline-6-carboxamide] | – | – | – | – | – | – | – | – | – | 6 nM | 86 nM | 22 nM | 59 nM | 45 nM | 15 nM
CCn1c(=O)cc(C2CCN(C)CC2)c2cc(C(=O)N(C)c3ccc(C)c(F)c3)ccc21 [Example 292, 1-ethyl-N-(3-fluoro-4-methylphenyl)-N-methyl-4-(1-methylpiperidin-4-yl)-2-oxo-1,2-dihydroquinoline-6-carboxamide] | – | – | 95% | 81% | – | 85% | 87% | 93% | 94% | – | – | – | – | – | –
CCn1c(=O)cc(C2CCN(C)CC2)c2cc(C(=O)N(C)c3ccc(C)c(Cl)c3)ccc21 [Example 293, N-(3-chloro-4-methylphenyl)-1-ethyl-N-methyl-4-(1-methylpiperidin-4-yl)-2-oxo-1,2-dihydroquinoline-6-carboxamide] | – | – | 94% | 88% | – | 87% | 90% | 94% | 93% | – | – | – | – | – | –
CCn1c(=O)cc(C2CCN(C)CC2)c2cc(C(=O)N(C)c3ccc(C)c(C)c3)ccc21 [Example 294, N-(3,4-dimethylphenyl)-1-ethyl-N-methyl-4-(1-methylpiperidin-4-yl)-2-oxo-1,2-dihydroquinoline-6-carboxamide] | – | – | 94% | 84% | – | 85% | 90% | 94% | 95% | – | – | – | – | – | –
